{
  "source": "patent US20030096850A1",
  "about": "“Treating infections by administration of oxazolidinones” (priority 2001, published 2003)",
  "key": {"[1]": {"assay": "Human who has acne treated with an Oxazolidinone ointment", "assay_type": "in vivo", "conditions": "person, ointment 30 mg/ml twice daily on skin"}, "[2]": {"tested_on": "Staphylococcal epidermidis", "assay": "Human treated with Oxazolidinone cream or ointment prior to surgery", "assay_type": "in vivo", "conditions": "cream or ointment 10-30 mg/ml, evening prior to and morning of surgery", "description": "(§1) A 75 kilo […] is being prepared for surgery; the types of surgeries include open-heart surgery, joint replacement, back surgery, or any type of invasive surgery. A cream or ointment preparation of 10-30 mg/ml (S)-N-[[3-[3-fluoro-4-(4-morpholinyl)phenyl]-2-oxo-5-oxazolidinyl]methyl]acetamide is liberally spread by a nurse wearing gloves upon the intended site of the incision and an area of 8 inches around the margins of the intended incision site the evening prior to surgery and the first thing in the morning of the surgery. The area of application is kept free of clothing until the cream or ointment is absorbed."}, "Staphylococcal aureus": {"tested_on": "Staphylococcal aureus", "assay": "Human treated with Oxazolidinone cream or ointment prior to surgery", "assay_type": "in vivo", "conditions": "cream or ointment 10-30 mg/ml, evening prior to and morning of surgery", "description": "as §1"}, "[3]": {"assay": "Treatment of diabetic foot with cream or ointment", "assay_type": "in vivo, human", "conditions": "cream or ointment 10-30 mg/ml three times daily for 10-14 days", "description": "A 70 kilo […] with a history of diabetes and infected foot ulcerations, also known as diabetic foot, is treated with a cream or ointment preparation of 10-30 mg/ml (S)-N-[[3-[3-fluoro-4-(4-morpholinyl)phenyl]-2-oxo-5-oxazolidinyl]methyl]acetamide. The cream or ointment is liberally spread over the exposed surface of the ulcerations and adjacent whole skin three times daily for 10-14 days."}, "[4]": {"assay": "Human who has an ear infection (otitis media) treated with Oxazolidinone solution", "assay_type": "in vivo", "conditions": "child, ten drops of 10 mg/ml solution into the ear twice daily, before 10 days", "description": "Ten drops of a solution containing 10 mg/ml of (S)-N-[[3-[3-fluoro-4-(4-morpholinyl)phenyl]-2-oxo-5-oxazolidinyl]methyl]acetamide is dropped into the ear twice daily for ten days with an eye dropper and is immediately followed by closing the outer ear canal with cotton."}},
  "data": [
    {"molecule": "CC(=O)NC[C@H]1CN(c2ccc(N3CCN(C(=O)CO)CC3)c(F)c2)C(=O)O1", "note": "[Example 1, (S)-N-[[3-[3-Fluoro-4-[4-(hydroxyacetyl)-1-piperazinyl]-phenyl]-2-oxo-5-oxazolidinyl]methyl]acetamide]", "values": [
      {"measurement": "reddened and swollen pustules after administration", "setting": "[1]", "value": "greatly reduced"}
    ]},
    {"molecule": "CC(=O)NC[C@H]1CN(c2ccc(N3CCOCC3)c(F)c2)C(=O)O1", "note": "[Example 2, (S)-N-[[3-[3-Fluoro-4-(4-morpholinyl)phenyl]-2-oxo-5-oxazolidinyl]methyl]acetamide]", "values": [
      {"measurement": "skin commensal pathogen Staphylococcal epidermidis throughout the full thickness of the skin at the incision site", "setting": "[2]", "value": "killed or are prevented from growing"},
      {"measurement": "skin commensal pathogen Staphylococcal aureus throughout the full thickness of the skin at the incision site", "setting": "Staphylococcal aureus", "value": "killed or are prevented from growing"},
      {"measurement": "tissue destruction and repair in the ulcerated area", "setting": "[3]", "value": "tissue destruction in the ulcerated area has visibly ceased and tissue repair has begun"},
      {"measurement": "fever and ear pain", "setting": "[4]", "value": "the fever is down and the pain is gone"}
    ]}
  ]
}
